Reference: US20190060391A1, “POWDER FORMULATION HAVING HY[…] HYP[…] AND METHOD FOR PREPARING THE SAME” (INFINITUS (CHINA) COMPANY LTD., priority 2017, published 2019)
Counter-ions that a name gives are not always drawn.

Key:
[1] = tested on: alloxan-induced mice; test: Fasting blood glucose and glucose tolerance in alloxan hyperglycemia model mice; format: in vivo, ICR mouse; details: for Blood glucose decreasing rate of the mice: positive control 230 mg/Kg; for Blood glucose of the mice: positive control 230 mg/kg
Procedure: (§1) Method for preparing the solution of the test sample (500 mg/kg): 2.3011 g of the test sample was precisely weighed and 46 mL of distilled water was added to prepare a solution of 0.05 g/mL, i.e., high-dose group of the test sample (500 mg/kg, 1 mL/100 g), which was equal to 30 times the recommended amount for human.
(§2) Method for preparing the solution of the test sample (170 mg/kg): 0.6970 g of the test sample was precisely weighed and 41 mL of distilled water was added to prepare a solution of 0.017 g/mL, i.e., medium-dose group of the test sample (170 mg/kg, 1 mL/100 g), which was equal to 10 times the recommended amount for human.
(§3) Method for preparing the solution of the test sample (85 mg/kg): 0.3396 g of the test sample was precisely weighed and 40 mL of distilled water was added to prepare a solution of 0.0085 g/mL, i.e., low-dose group of the test sample (85 mg/kg, 1 mL/100 g), which was equal to 5 times the recommended amount for human.
Method for preparing the positive control sample: the metformin hydrochloride tablet was milled into fine powders by a mortar, 0.1470 g powder was precisely weighed and transferred to a 10 mL-centrifugal tube. 5 mL of distilled water was added by a pipette to prepare a solution with a concentration of 0.023 g/mL, i.e., metformin positive control group for mouse (230 mg/kg, 0.1 ml/10 g), which was equal to 13.5 times the recommended amount for human.
The administration of test sample to the rats lasted for 45 days, and the administration to mice lasted for 55 days.
After 3-day of adaptive housing with normal feeding, 15 mice were randomly chosen and subjected to fasting for 3 to 5 hours. The fasting blood glucose value was measured as the basal blood glucose value of this batch of animals. Thereafter, the mice were subjected to fasting for 24 hours (with free access to water). Except for the blank group and the negative control group, 96 mg/kg of alloxan (fresh prepared) were injected via caudal vein to establish the model, at an administration amount of 0.1 mL/10 g. 4 days later, the animals were fasted for 3 to 5 hours and the blood glucose was tested. Animals with blood glucose of 10 to 25 mmol/L were considered as hyperglycemia model animals. The fasting blood glucose value of mice was tested every two week. After the experiments, animals in each group were fasted for 3 to 4 hours, and the fasting blood glucose, glucose tolerance, blood glucose decreasing rate and the area under the blood glucose curve were tested.

[2] = Organ coefficient of rats; format: in vivo, SD rat; details: diabetic rats, positive control 170 mg/kg
Procedure: The rats were subjected to euthanasia and dissection. Hearts, livers, spleens, lungs, kidneys and parts of the pancreases of the rats were weighed, imaged and recorded, respectively. The organ coefficients were calculated. In addition, pancreases from each group were respectively immersed into formalin-containing bottles.

[3] = tested on: diabetic rats; test: Fasting blood glucose and glucose tolerance in diabetic rats (high calorie feed plus alloxan); format: in vivo, SD rat; details: for Blood Glucose at 0 hour / Blood Glucose at 2th hour / Blood Glucose at 0.5 hour: rats, positive control 170 mg/kg
Procedure: as §1, §2, §3
Method for preparing the positive control sample: the metformin hydrochloride tablet was milled into fine powders by a mortar, 0.9329 g powder was precisely weighed and transferred to a 100 mL-beaker. 43 mL of distilled water was added by using a 100 mL-graduated cylinder, preparing solution with a concentration of 0.017 g/mL, i.e., metformin positive control group for rat (170 mg/kg, 1 ml/100 g), which was equal to 10 times the recommended amount for human.
After 5-day of adaptive housing with normal feeding, the rats were fasted for 3 to 4 hours and blood samples were taken from the tails. The fasting blood glucose value, which was the blood glucose value before administration of glucose (0 hour), was tested. After administration of 2.5 g/kgBW glucose, the blood glucose level was tested at the 0.5 hour and the 2nd hour as the basal value of that batch of animals. The rats were divided into 6 groups according to the blood glucose value at 0 hour and the 0.5 hour, including one blank group, one positive control group, one model group and 3 dosing groups of the test sample. There were 20 rats in the high-dose group, and 18 rats in the other groups. The blank group was not treated. The positive control group was administered with metformin solution by intragastric gavage. The 3 dosing groups of the test sample were administered with test sample solutions of different concentrations by intragastric gavage. The model group was administered with the solvent of the same volume. […] Normal feeds were provided to all groups. One week later, high calorie feeds were provided to the model group, positive control group and three dosing groups of the test sample. 30 days after the feeding, the rats were fasted for 24 hours. The model group and the three dosing groups of the test sample were respectively peritoneal injected with alloxan of 200 mg/kgBW (the injection amount was […] weight) on the base of high calorie feed. The model group and 3 dosing groups of the test sample were continuously fed on high calorie feeds for 3 days. When the experiment ended, animals in each group were fasted for 3 to 4 hours, and the fasting blood glucose, glucose tolerance and area under the blood glucose curve were measured.

[4] = Body weight of mice; format: in vivo, ICR mouse; details: alloxan mice, positive control 230 mg/kg
Excerpt: The mice were weighed after 1-day adaptive feed, and the mice were weighed once a week and recorded. The administration of test sample to the rats lasted for 45 days, and the administration to mice lasted for 55 days.

[5] = tested on: diabetic rats; test: Cholesterol level and triglyceride level in serum of rats; format: in vivo, SD rat; details: positive control 170 mg/kg
Procedure: After the experiment, the rats in each group were fasted for 3 to 4 hours and peritoneal injected with pentobarbital sodium solution (1 mL/100 g) for anesthesia. 8 mL of blood was taken from the femoral artery and centrifuged at 4500 r for 6 minutes at 4° C. The serum was taken and the cholesterol level was tested by a cholesterol kit, and the triglyceride level was tested by a triglyceride kit.

[6] = Organ coefficient of mice; format: in vivo, ICR mouse; details: alloxan mice, positive control 230 mg/kg
Procedure: The mice were subjected to euthanasia and dissection. Hearts, livers, spleens, lungs, kidneys and pancreases of the mice were weighed, imaged and recorded, respectively. The organ coefficients were calculated. In addition, pancreases from each group were respectively immersed into formalin-containing bottles, and the sections were sent for pathological examination.
After administration of the test sample, the hearts, livers, spleens, lungs, kidneys and pancreases of the mice in each group were weighed respectively, and organ coefficients of each group were compared.

[7] = Body weight of rats; format: in vivo, SD rat; design: unit not given here; details: diabetic rats, positive control 170 mg/kg
Excerpt: The rats were weighed after 1-day adaptive feed, and the rats were weighed once a week and recorded.

Compound: CN(C)C(=N)N=C(N)N [metformin, metformin hydrochloride]
- Blood glucose decreasing rate of the mice ([1]; 45 d): −20.06% ± 0.30
- Blood glucose decreasing rate of the mice ([1]; 55 d): 21.60% ± 0.48
- Blood glucose of the mice ([1]; 0 d): 22.87 ± 3.66 mmol/L
- Blood glucose of the mice ([1]; 16 d): 13.60 ± 4.82 mmol/L
- Blood glucose of the mice ([1]; 30 d): 15.57 ± 5.85 mmol/L
- Blood glucose of the mice ([1]; 45 d): 18.28 ± 5.86 mmol/L
- Blood glucose of the mice ([1]; 55 d): 17.93 ± 10.23 mmol/L
- Effect on fasting blood glucose vs model group (in words) ([1]; positive control group): significantly improved symptom of the hyperglycemia
- Heart Coefficient [2]: 0.36 ± 0.06
- Kidney Coefficient [2]: 0.88 ± 0.20
- Liver Coefficient [2]: 3.36 ± 0.48
- Lung Coefficient [2]: 0.53 ± 0.15
- Pancreas Coefficient [2]: 0.37 ± 0.13
- Spleen Coefficient [2]: 0.16 ± 0.09
- Area under the blood glucose curve vs model group (in words) ([3]; diabetic rats, glucose tolerance test): showed significant differences
- Effect on fasting blood glucose vs model group (in words) ([3]; diabetic rats, positive control group): significantly improved symptom of the hyperglycemia
- Blood Glucose at 0 hour ([3]; 4D): 6.00 ± 0.87
- Blood Glucose at 2th hour ([3]; 4D): 5.75 ± 0.97
- Blood Glucose at 0.5 hour ([3]; 4D): 8.33 ± 1.54
- Blood Glucose at 0 hour ([3]; 45D): 12.05 ± 4.98
- Blood Glucose at 2th hour ([3]; 45D): 13.31 ± 5.83
- Blood Glucose at 0.5 hour ([3]; 45D): 15.98 ± 4.87
- Changes of body weight of mice ([4]; 1 d): 21.1 ± 2.0 g
- Changes of body weight of mice ([4]; 2 d): 23.3 ± 2.3 g
- Changes of body weight of mice ([4]; 6 d): 22.1 ± 3.1 g
- Changes of body weight of mice ([4]; 8 d): 22.8 ± 5.8 g
- Changes of body weight of mice ([4]; 11 d): 23.1 ± 4.0 g
- Changes of body weight of mice ([4]; 20 d): 25.6 ± 5.4 g
- Changes of body weight of mice ([4]; 27 d): 25.3 ± 4.2 g
- Changes of body weight of mice ([4]; 34 d): 27.8 ± 4.1 g
- Changes of body weight of mice ([4]; 41 d): 29.1 ± 4.8 g
- Changes of body weight of mice ([4]; 48 d): 27.0 ± 5.4 g
- Changes of body weight of mice ([4]; 55 d): 27.2 ± 5.2 g
- Cholesterol Index [5]: 3.71 ± 1.57
- Triglyceride Index [5]: 9.47 ± 5.29
- Heart Coefficient [6]: 0.50 ± 0.09
- Kidney Coefficient [6]: 2.17 ± 0.61
- Liver Coefficient [6]: 4.96 ± 1.67
- Lung Coefficient [6]: 0.67 ± 0.14
- Pancreas Coefficient [6]: 0.76 ± 0.31
- Spleen Coefficient [6]: 0.47 ± 0.37
- Weight changes of rats ([7]; 3 d): 207.00 ± 10.91
- Weight changes of rats ([7]; 6 d): 225.22 ± 12.01
- Weight changes of rats ([7]; 8 d): 244.28 ± 10.93
- Weight changes of rats ([7]; 12 d): 277.50 ± 8.25
- Weight changes of rats ([7]; 22 d): 325.89 ± 18.39
- Weight changes of rats ([7]; 28 d): 373.67 ± 21.40
- Weight changes of rats ([7]; 35 d): 396.22 ± 23.32
- Weight changes of rats ([7]; 42 d): 403.83 ± 21.22
- Weight changes of rats ([7]; 45 d): 361.19 ± 27.43
